Assays:
H3122 cells [1] = experiment: Long-term cell proliferation (colony formation) assay in H3122; format: cell-based; settings: for effect of MED12 knockdown on response to ALK inhibitors, H3122: shMED12 #1-3, 300 nM crizotinib or 2.5 nM NVP-TAE684; for effect of recombinant TGFbeta treatment on drug response, H3122: TGFbeta-dosage dependent, crizotinib, cisplatin 2 μM; for effect of MED12 knockdown on response to chemotherapy drugs, H3122: shMED12 #4 and #5, 2 μM cisplatin or 2.5 μM 5-FU, 18 days
Method: (§1) H3122, PC9, H3255, SK-CO-1 and SW1417 cells were cultured in RPMI with 8% heat inactivated fetal bovine serum, penicillin and streptomycin at 5% CO2. HEK 293T, Phoenix and A375, SK-MEL-28 and Huh-7 cells were cultured in DMEM with 8% heat-inactivated fetal bovine serum, penicillin and streptomycin at 5% CO2. Subclones of each cell line expressing the murine ecotropic receptor were generated and used for all experiments shown. Phoenix cells were used as producers of retroviral supernatants as described at www.stanford.edu/group/nolan/retroviral_systems/phx.html. HEK 293T cells were used as producers of lentiviral supernatants as described at www.broadinstitute.org/rnai/public/resources/protocols. The calcium phosphate method was used for the transfection of Phoenix and 293T cells. Infected cells were selected for successful retroviral integration using 2 μg/ml of puromycin.
(§2) For long-term cell proliferation assays, cells were seeded into 6-well plates (2-5×10E4 cells/well) and cultured both in the absence and presence of drugs as indicated. More details are described (Huang et al., 2009. Cancer Cell 15: 328-340). All knockdown and overexpression experiments were done by retroviral or lentiviral infection. All relevant assays were performed independently at least three times.

H3122 cells [2] = settings: parental H3122, EML4-ALK translocation; McDermott et al., 2008; cited from earlier work
[3] = tested on: SK-CO-1 colorectal cancer cells (KRASV12); experiment: Long-term cell proliferation (colony formation) assay in SK-CO-1; format: cell-based
Method: as §1, §2

PC9 cells = experiment: Long-term cell proliferation (colony formation) assay in PC9; format: cell-based; settings: for effect of recombinant TGFbeta treatment on drug response, PC9: TGFbeta-dosage dependent, gefitinib 50 nM, cisplatin 0.7 μM
Method: (§3) H3122, PC9, H3255, SK-CO-1 and SW1417 cells were cultured in RPMI with 8% heat inactivated fetal bovine serum, penicillin and streptomycin at 5% CO2. […] Subclones of each cell line expressing the murine ecotropic receptor were generated and used for all experiments shown. Phoenix cells were used as producers of retroviral supernatants as described at www.stanford.edu/group/nolan/retroviral_systems/phx.html. […] Infected cells were selected for successful retroviral integration using 2 μg/ml of puromycin.
as §2, with “More details are described (Huang et al., 2009. Cancer Cell 15: 328-340).” left out

TGFbeta receptor Type II = TGFbeta receptor Type II (Homo sapiens, UniProt P37173); settings: cited from earlier work
H3255 cells = format: cell-based
Method: as §3
as §2, with “More details are described (Huang et al., 2009. Cancer Cell 15: 328-340).” left out

Huh-7 HCC cells = experiment: Long-term cell proliferation (colony formation) assay in Huh-7; format: cell-based
Method: as §1, §2

[4] = tested on: MEK/ERK activation in PC9 cells; experiment: Western blotting of MEK/ERK activation in PC9; format: cell-based
Description: (§4) Antibody against MED12 (A300-774A) and MED13 (A301-278A) was from Bethyl Laboratories; antibodies against Vimentin (RV202) and N-cadherin (ab18203) were from Abcam; antibody against p-SMAD2 (Ser465/467, #3101), SMAD2 (L16D3, #3103), pMEK1/2 (S217/221, #9121) and MEK1/2 (L38C12, #4694) were from Cell Signaling; anti-Flag M2 (F1804) was from Sigma; antibodies against HSP90 (H-114), p-ERK (E-4), ERK1 (C-16), ERK2 (C-14), CDK8 (D-9), Lamin A/C (636), SP1 (PEP2), alpha-TUBULIN (H-183), TGFbeta R2 (C-16), CDK8 (D9) and normal rabbit IgG control were from Santa Cruz Biotechnology; A mixture of ERK1 and ERK2 antibodies was used for detection of total ERK; 12CA5 hybridoma supernatant was also used to detect HA tagged-TGFbeta R2.

[5] = tested on: A375 melanoma cells (BRAFV600E); experiment: Long-term cell proliferation (colony formation) assay in A375; format: cell-based; settings: without targeted cancer drugs
Method: as §3
as §2, with “More details are described (Huang et al., 2009. Cancer Cell 15: 328-340).” left out

[6] = tested on: MEK/ERK activation in H3122 cells; experiment: Western blotting of MEK/ERK activation in H3122; format: cell-based; settings: data not shown
Description: as §4

[7] = tested on: Vimentin, N-cadherin and p-ERK in Huh7 cells; experiment: Western blotting of mesenchymal markers and p-ERK in Huh7; format: cell-based; settings: 50 picoM of TGFbeta for 6 days
Description: as §4

[8] = tested on: MEK/ERK activation in H3255 cells; experiment: Western blotting of MEK/ERK activation in H3255; format: cell-based
Description: as §4

Sequence of TGFbeta receptor Type II (P37173 23-567, species assumed): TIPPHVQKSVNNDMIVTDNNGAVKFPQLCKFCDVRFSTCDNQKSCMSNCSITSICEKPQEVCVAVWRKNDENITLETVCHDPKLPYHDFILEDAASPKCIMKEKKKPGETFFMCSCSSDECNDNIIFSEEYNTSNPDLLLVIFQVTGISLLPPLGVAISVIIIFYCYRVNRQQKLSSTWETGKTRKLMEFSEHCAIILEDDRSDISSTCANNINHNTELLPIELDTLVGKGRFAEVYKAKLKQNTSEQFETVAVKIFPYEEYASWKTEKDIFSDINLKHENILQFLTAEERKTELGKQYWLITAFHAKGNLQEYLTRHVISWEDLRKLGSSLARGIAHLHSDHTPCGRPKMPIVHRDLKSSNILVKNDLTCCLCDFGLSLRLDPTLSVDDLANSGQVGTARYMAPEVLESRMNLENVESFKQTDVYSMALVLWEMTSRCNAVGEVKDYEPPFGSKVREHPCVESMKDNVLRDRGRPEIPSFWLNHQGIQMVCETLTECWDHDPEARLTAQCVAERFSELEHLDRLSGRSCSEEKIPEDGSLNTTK

COc1cc(N2CCC(N3CCN(C)CC3)CC2)ccc1Nc1ncc(Cl)c(Nc2ccccc2S(=O)(=O)C(C)C)n1 [NVP-TAE684]
effect of MED12 knockdown on response to ALK inhibitors, H3122 (H3122 cells [1]; 28 days): conferred resistance | sensitivity of H3122 cells to selective ALK inhibitors (H3122 cells [2]): exquisitely sensitive

Cn1cnc2c(F)c(Nc3ccc(Br)cc3Cl)c(C(=O)NOCCO)cc21 [AZD6244, seluteminib]
effect of MED12 knockdown on response to MEK inhibitor, SK-CO-1 ([3]; 0.5 μM AZD6244, 28 days): conferred resistance | effect of recombinant TGFbeta treatment on drug response, SK-CO-1 ([3]; TGFbeta-dosage dependent, AZD6244 0.5 μM): leads to resistance | sensitivity of SK-CO-1 cells ([3]; parental cells): highly sensitive

N.N.[Cl][Pt][Cl] [cisplatin]
effect of recombinant TGFbeta treatment on drug response, PC9 (PC9 cells): leads to resistance | effect of MED12 knockdown on response to cisplatin, PC9 (PC9 cells; shMED12 #4 and #5, 0.37 or 1.1 μM cisplatin, 21 days): confers resistance | effect of recombinant TGFbeta treatment on drug response, H3122 (H3122 cells [1]): leads to resistance | effect of MED12 knockdown on response to chemotherapy drugs, H3122 (H3122 cells [1]): confers resistance

O=c1[nH]cc(F)c(=O)[nH]1 [5-FU, 5-Fluorouracil]
effect of MED12 knockdown on response to chemotherapy drugs, H3122 (H3122 cells [1]): confers resistance

Cc1cccc(-c2nn3c(c2-c2ccnc4ccc(C(N)=O)cc24)CCC3)n1 [LY2157299, 4-(2-(6-methylpyridin-2-yl)-5,6-dihydro-4H-pyrrolo[1,2-b]pyrazol-3-yl)quinoline-6-carboxamide]
proliferation of control and MED12KD H3122 cells, monotherapy (H3122 cells [1]; 1 μM LY2157299 alone, 14 days): little effect | IC50 (TGFbeta receptor Type II): 2 nM

COc1cc2ncnc(Nc3ccc(F)c(Cl)c3)c2cc1OCCCN1CCOCC1 [gefitinib]
effect of recombinant TGFbeta treatment on drug response, PC9 (PC9 cells): leads to resistance

C#Cc1cccc(Nc2ncnc3cc(OCCOC)c(OCCOC)cc23)c1 [erlotinib]
effect of MED12 knockdown on response to EGFR inhibitors, H3255 (H3255 cells): conferred resistance | effect of MED12 knockdown on response to EGFR inhibitors, PC9 (PC9 cells): conferred resistance

C[C@@H](Oc1cc(-c2cnn(C3CCNCC3)c2)cnc1N)c1c(Cl)ccc(F)c1Cl [crizotinib]
effect of recombinant TGFbeta treatment on drug response, H3122 (H3122 cells [1]): leads to resistance | proliferation of control H3122 cells (H3122 cells [1]; pRS control cells, 300 nM crizotinib alone, 28 days): potently inhibited the proliferation | effect of MED12 knockdown on response to ALK inhibitors, H3122 (H3122 cells [1]; 28 days): conferred resistance | sensitivity of H3122 cells to selective ALK inhibitors (H3122 cells [2]): exquisitely sensitive

CNC(=O)c1cc(Oc2ccc(NC(=O)Nc3ccc(Cl)c(C(F)(F)F)c3)cc2)ccn1 [sorafenib]
effect of MED12 knockdown on response to sorafenib, Huh-7 (Huh-7 HCC cells; 2 μM sorafenib, 21 days): became resistant

recombinant TGFbeta: Recombinant hTGFbeta 1 (240-B/CF) purchased from R&D systems
MEK/ERK activation in PC9 cells [4]: caused MEK/ERK activation | proliferation of A375 cells, TGFbeta alone [5]: growth inhibition | MEK/ERK activation in H3122 cells [6]: caused MEK/ERK activation | levels of Vimentin, N-cadherin and p-ERK in Huh7 cells [7]: increased levels of Vimentin, N-cadherin and p-ERK | MEK/ERK activation in H3255 cells [8]: caused MEK/ERK activation | proliferation of Huh-7 cells, TGFbeta alone (Huh-7 HCC cells; without targeted cancer drugs, data not shown): growth inhibition

Reference: patent publication US20150275306A1, “METHODS AND MEANS FOR PREDICTING RESISTANCE TO ANTI-CANCER TREATMENT” (Stichting Het Nederlands Kanker Instituut Antoni van …, priority 2012, published 2015)
